US10266537B2, “3-acetylenyl-pyrazole-pyrimidine derivative, and preparation method therefor and uses thereof” (Si Chuan University, priority 2015, dated 2019)
Like-named read-outs stand apart in the source and are kept apart here.

Experiments:
MDA-MB-435 = test: Cell proliferation inhibition assay (MTT); format: cell-based, human; settings: Homo sapiens, read-out: Proliferative inhibitory activity MDA-MB-435 (IC50 class)
Experimental: (§1) The remaining cell lines were cultured in DMEM complete medium containing 10% fetal bovine serum (MV4-11 cells 20%), 100 U/ml penicillin, 100 μg/mL streptomycin at 5% CO2, and 37° C.
(§2) The cells were seeded in 96-well plates with 200 μL of cell suspension per well and incubated overnight in a cell culture medium with a cell concentration of 1˜2×10^4 cells/mL. The next day, the supernatant was discarded (the suspension cell was centrifuged before it) and the cells were treated with gradient concentrations of the test compound, respectively. At the same time, the drug-free negative control group and the equal volume of solvent control group, DMSO concentration of 0.1%, each dose group set up three wells, 37° C., 5% CO2 conditions. After 72 hours, add 20 μL of MTT reagent at a concentration of 5 mg/mL per well. After incubation for 2-4 h, the supernatant was discarded and 150 μL of DMSO was added to each well. […] Determine the absorbance (A) value (λ=570 nm, A value is proportional to the number of living cells), whichever is the average. […] The experiment was repeated at least 3 times. Experimental data were expressed as mean, data statistics using t test, P<0.05 for the difference was statistically significant. The inhibitory effects of the following compounds on cell proliferation were expressed as IC50 or inhibition rates.

MDA-MB-231 = test: Cell proliferation inhibition assay (MTT); format: cell-based, human; settings: Homo sapiens, read-out: Proliferative inhibitory activity MDA-MB-231 (IC50 class)
Experimental: as §1, §2

Compound | IC50 (MDA-MB-435; MDA-MB-435, MTT, 72 hours) [nM] | IC50 (MDA-MB-231; MDA-MB-231, MTT, 72 hours) [nM] | IC50 (MDA-MB-435; MDA-MB-435, 72 h) [nM] | IC50 (MDA-MB-231; MDA-MB-231, 72 h) [nM]
Cc1ccc(NC(=O)c2ccc(CN3CCN(C)CC3)cc2)cc1C#Cc1nn(C(C)C)c2ncnc(N)c12 [Compound 1] | 100 to 500 | 100 to 500 | – | –
CCn1nc(C#Cc2cc(C(=O)Nc3ccc(CN4CCN(C)CC4)c(C(F)(F)F)c3)ccc2C)c2c(N)ncnc21 [Compound 2] | < 100 | < 100 | – | –
CC(=O)Nc1ncnc2c1c(C#Cc1cc(C(=O)Nc3ccc(CN4CCN(C)CC4)c(C(F)(F)F)c3)ccc1C)nn2C(C)C [Compound 15] | 100 to 500 | 100 to 500 | – | –
Cc1ccc(C(=O)Nc2ccc(CN3CCN(C)CC3)c(C(F)(F)F)c2)cc1C#Cc1nn([C@@H]2CCOC2)c2ncnc(N)c12 [Compound 20] | – | – | < 100 | < 100
Cc1ccc(C(=O)Nc2ccc(CN3CCN(C)CC3)c(C(F)(F)F)c2)cc1C#Cc1nn([C@H]2CCOC2)c2ncnc(N)c12 [Compound 21] | – | – | < 100 | < 100
Cc1ccc(NC(=O)c2ccc(C)c(C#Cc3nn(C(C)C)c4ncnc(N)c34)c2)cc1 [Compound 22] | > 1000 | 100 to 500 | – | –
CCn1nc(C#Cc2cc(C(=O)Nc3ccc(CN4CCN(C)CC4)c(C(F)(F)F)c3)ccc2F)c2c(N)ncnc21 [Compound 23] | 100 to 500 | > 1000 | – | –
CCn1nc(C#Cc2cc(C(=O)Nc3ccc(CN4CCN(C)CC4)c(C(F)(F)F)c3)ccc2C(C)C)c2c(N)ncnc21 [Compound 27] | > 1000 | > 1000 | – | –
Cc1ccc(NC(=O)c2ccc(CN3CCN(C)CC3)c(C(F)(F)F)c2)cc1C#Cc1nn(C)c2ncnc(N)c12 [Compound 28] | < 100 | < 100 | – | –
Cc1ccc(C(=O)Nc2cccc(C(F)(F)F)c2)cc1C#Cc1nn(C2CCN(C)CC2)c2ncnc(N)c12 [Compound 32] | 100 to 500 | < 100 | – | –
CN1CCC(n2nc(C#Cc3cccc(NC(=O)c4cccc(C(F)(F)F)c4)c3)c3c(N)ncnc32)CC1 [Compound 33] | 100 to 500 | 500 to 1000 | – | –
CN1CCC(n2nc(C#Cc3cc(NC(=O)c4cccc(C(F)(F)F)c4)ccc3Cl)c3c(N)ncnc32)CC1 [Compound 34] | 100 to 500 | 500 to 1000 | – | –
Cc1ccc(NC(=O)Nc2cccc(C(F)(F)F)c2)cc1C#Cc1nn(C2CCN(C)CC2)c2ncnc(N)c12 [Compound 35] | < 100 | 500 to 1000 | – | –
CN1CCC(n2nc(C#Cc3cc(NC(=O)Nc4cccc(C(F)(F)F)c4)ccc3Cl)c3c(N)ncnc32)CC1 [Compound 36] | 100 to 500 | 500 to 1000 | – | –
CN1CCC(n2nc(C#Cc3cccc(C(=O)Nc4cccc(C(F)(F)F)c4)c3)c3c(N)ncnc32)CC1 [Compound 37] | 100 to 500 | > 1000 | – | –
CN1CCC(n2nc(C#Cc3cc(C(=O)Nc4cccc(C(F)(F)F)c4)ccc3Cl)c3c(N)ncnc32)CC1 [Compound 38] | 100 to 500 | 500 to 1000 | – | –
CN1CCC(n2nc(C#Cc3cccc(NC(=O)Nc4cccc(C(F)(F)F)c4)c3)c3c(N)ncnc32)CC1 [Compound 39] | 500 to 1000 | > 1000 | – | –
Cc1ccc(NC(=O)c2cccc(C(C)(C)C)c2)cc1C#Cc1nn(C2CCN(C)CC2)c2ncnc(N)c12 [Compound 40] | < 100 | < 100 | – | –
Cc1ccc(NC(=O)c2ccc(C(F)(F)F)cc2)cc1C#Cc1nn(C2CCN(C)CC2)c2ncnc(N)c12 [Compound 41] | > 1000 | 500 to 1000 | – | –
Cc1ccc(NC(=O)c2ccc(C)c(C(F)(F)F)c2)cc1C#Cc1nn(C2CCN(C)CC2)c2ncnc(N)c12 [Compound 42] | < 100 | < 100 | – | –
COc1ccc(C(=O)Nc2ccc(C)c(C#Cc3nn(C4CCN(C)CC4)c4ncnc(N)c34)c2)cc1 [Compound 43] | > 1000 | > 1000 | – | –
COc1cccc(C(=O)Nc2ccc(C)c(C#Cc3nn(C4CCN(C)CC4)c4ncnc(N)c34)c2)c1 [Compound 44] | 100 to 500 | 100 to 500 | – | –
Cc1ccc(NC(=O)c2cccc(F)c2)cc1C#Cc1nn(C2CCN(C)CC2)c2ncnc(N)c12 [Compound 45] | > 1000 | 500 to 1000 | – | –
Cc1ccc(NC(=O)c2ccc(F)c(Cl)c2)cc1C#Cc1nn(C2CCN(C)CC2)c2ncnc(N)c12 [Compound 46] | > 1000 | 500 to 1000 | – | –
Cc1ccc(NC(=O)c2ccc(F)c(C(F)(F)F)c2)cc1C#Cc1nn(C2CCN(C)CC2)c2ncnc(N)c12 [Compound 47] | 500 to 1000 | 500 to 1000 | – | –

Compound | IC50 (MDA-MB-435; MDA-MB-435, MTT, 72 hours) [nM] | IC50 (MDA-MB-231; MDA-MB-231, MTT, 72 hours) [nM] | IC50 (MDA-MB-435; MDA-MB-435, 72 h) [nM] | IC50 (MDA-MB-231; MDA-MB-231, 72 h) [nM]
Cc1ccc(NC(=O)c2cccc(C(F)(F)F)c2F)cc1C#Cc1nn(C2CCN(C)CC2)c2ncnc(N)c12 [Compound 48] | 100 to 500 | 100 to 500 | – | –
Cc1ccc(NC(=O)c2cccc(Cl)c2)cc1C#Cc1nn(C2CCN(C)CC2)c2ncnc(N)c12 [Compound 49] | 500 to 1000 | < 100 | – | –
Cc1ccc(NC(=O)c2cc(C(F)(F)F)ccc2F)cc1C#Cc1nn(C2CCN(C)CC2)c2ncnc(N)c12 [Compound 50] | 100 to 500 | 100 to 500 | – | –
Cc1ccc(NC(=O)c2cc(F)cc(C(F)(F)F)c2)cc1C#Cc1nn(C2CCN(C)CC2)c2ncnc(N)c12 [Compound 51] | > 1000 | 500 to 1000 | – | –
Cc1ccc(NC(=O)c2cccc(OC(F)(F)F)c2)cc1C#Cc1nn(C2CCN(C)CC2)c2ncnc(N)c12 [Compound 52] | < 100 | < 100 | – | –
Cc1ccc(NC(=O)c2ccc(Cl)cc2)cc1C#Cc1nn(C2CCN(C)CC2)c2ncnc(N)c12 [Compound 53] | 100 to 500 | < 100 | – | –
Cc1ccc(NC(=O)c2cc(C(F)(F)F)cc(C(F)(F)F)c2)cc1C#Cc1nn(C2CCN(C)CC2)c2ncnc(N)c12 [Compound 54] | < 100 | < 100 | – | –
Cc1cccc(C(=O)Nc2ccc(C)c(C#Cc3nn(C4CCN(C)CC4)c4ncnc(N)c34)c2)c1 [Compound 55] | 100 to 500 | 100 to 500 | – | –
Cc1ccc(NC(=O)c2cc(C(F)(F)F)cc(Cl)c2F)cc1C#Cc1nn(C2CCN(C)CC2)c2ncnc(N)c12 [Compound 56] | > 1000 | > 1000 | – | –
Cc1ccc(NC(=O)c2cccc(C(F)(F)F)n2)cc1C#Cc1nn(C2CCN(C)CC2)c2ncnc(N)c12 [Compound 57] | > 1000 | 500 to 1000 | – | –
Cc1ccc(NC(=O)c2cncc(C(F)(F)F)c2)cc1C#Cc1nn(C2CCN(C)CC2)c2ncnc(N)c12 [Compound 58] | < 100 | 100 to 500 | – | –
Cc1ccc(NC(=O)c2ccnc(C(F)(F)F)c2)cc1C#Cc1nn(C2CCN(C)CC2)c2ncnc(N)c12 [Compound 59] | 100 to 500 | 100 to 500 | – | –
Cc1ccc(NC(=O)c2ccc(Cl)c(Cl)c2)cc1C#Cc1nn(C2CCN(C)CC2)c2ncnc(N)c12 [Compound 60] | 500 to 1000 | 100 to 500 | – | –
Cc1ccc(C(=O)Nc2cc(C(C)(C)C)nn2C)cc1C#Cc1nn(C2CCN(C)CC2)c2ncnc(N)c12 [Compound 61] | 100 to 500 | 100 to 500 | – | –
Cc1ccc(C(=O)Nc2cc(C(C)(C)C)on2)cc1C#Cc1nn(C2CCN(C)CC2)c2ncnc(N)c12 [Compound 62] | < 100 | < 100 | – | –
Cc1ccc(NC(=O)c2cc(C(C)(C)C)nn2C)cc1C#Cc1nn(C2CCN(C)CC2)c2ncnc(N)c12 [Compound 63] | < 100 | 100 to 500 | – | –
Cc1ccc(NC(=O)c2cc(C(C)(C)C)on2)cc1C#Cc1nn(C2CCN(C)CC2)c2ncnc(N)c12 [Compound 64] | < 100 | 100 to 500 | – | –
Cc1ccc(NC(=O)c2nc(C(C)(C)C)cs2)cc1C#Cc1nn(C2CCN(C)CC2)c2ncnc(N)c12 [Compound 65] | < 100 | < 100 | – | –
Cc1ccc(NC(=O)c2cc(Cl)cc(C(F)(F)F)c2)cc1C#Cc1nn(C2CCN(C)CC2)c2ncnc(N)c12 [Compound 66] | < 100 | < 100 | – | –
Cc1ccc(NC(=O)c2ccc(Cl)c(C(F)(F)F)c2)cc1C#Cc1nn(C2CCN(C)CC2)c2ncnc(N)c12 [Compound 67] | < 100 | < 100 | – | –
Cc1ccc(NC(=O)c2cc(Cl)cc(Cl)c2)cc1C#Cc1nn(C2CCN(C)CC2)c2ncnc(N)c12 [Compound 68] | 100 to 500 | 100 to 500 | – | –
Cc1ccc(NC(=O)c2ccc(Cl)c(C(F)(F)F)c2)cc1C#Cc1nn(CC2CCN(C)C2)c2ncnc(N)c12 (centres unmarked) [Compound 69] | > 1000 | < 100 | – | –
Cc1ccc(NC(=O)c2ccc(Cl)c(C(F)(F)F)c2)cc1C#Cc1nn(C2CCN(C(=O)[C@H](C)O)CC2)c2ncnc(N)c12 [Compound 70] | 500 to 1000 | < 100 | – | –
Cc1ccc(NC(=O)c2ccc(Cl)c(C(F)(F)F)c2)cc1C#Cc1nn(C2CCN(C(=O)[C@@H](C)O)CC2)c2ncnc(N)c12 [Compound 71] | < 100 | < 100 | – | –
